Measurements as given in patent US8846739B2, “TGR5 agonists” (Exelixis Patent Company LLC, priority 2009, dated 2014).
pEC50: −log10 of the molar value.

Legend:
[1] = target: T1, human TGR5 (h-TGR5) (Homo sapiens, UniProt Q8TDU6); test: TGR5/CRE-Luciferase Assay; format: cell-based; conditions: HEK 293 hTGR5/CRE-Luc cells, 6 hours incubation, read-out: CRE-Luc Agonist (EC50)
T1 sequence (Q8TDU6 1-330): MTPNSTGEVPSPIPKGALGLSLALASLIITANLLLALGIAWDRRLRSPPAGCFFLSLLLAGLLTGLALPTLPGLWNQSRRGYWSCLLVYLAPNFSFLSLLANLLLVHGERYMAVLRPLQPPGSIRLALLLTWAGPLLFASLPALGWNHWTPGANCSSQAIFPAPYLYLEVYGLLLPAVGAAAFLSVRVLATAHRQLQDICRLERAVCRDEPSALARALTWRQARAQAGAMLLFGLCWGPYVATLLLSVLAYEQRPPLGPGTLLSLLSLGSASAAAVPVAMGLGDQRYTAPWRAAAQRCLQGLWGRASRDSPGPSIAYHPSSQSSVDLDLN
Experimental: HEK 293 cells stably expressing human TGR5 (h-TGR5) or mouse TGR5 (m-TGR5) were generated from HEK 293 CRE-Luciferase cells. The day before the assay, HEK 293 hTGR5/CRE-Luc cells were plated in DMEM in a 384 well assay plate at a density of 25 k cells/45 μL per well and grown for 18-20 hours. Compounds were serially diluted in DMEM containing 5% DMSO and 5 µL of compound or media alone was transferred to each well and plates were incubated for 6 hours. Following incubation, 30 μL of lysis/luciferase buffer was added to each well. The luciferase activity was then measured on the EnVision™ plate reader and the dose response data was analyzed using ActivityBase.
(§1) In the following tables, ECso values determined according to the TGR5 cAMP Assay are noted (cAMP); EC50 values determined according to the TGR5/CRE-Luciferiase Assay are noted (CRE-Luc).

[2] = target: T2, h-TGR5 (Homo sapiens, UniProt Q8TDU6); test: TGR5 cAMP Assay using Cisbio cAMP Dynamic 2 htrf assay kit; format: cell-based; conditions: hTGR5CRE-luc HEK 293 cells
T2 sequence (Q8TDU6 1-330): T1 sequence (Q8TDU6 1-330)
Experimental: Compounds were diluted in DPBS with 5% DMSO (8-point serial dilution by half logs) in a 96-well plate and 1 μL was transferred to a 384-well assay plate in quadruplicate. The d2-cAMP and anti-cAMP Ab-cryptate stock solution were prepared as per the instructions in the Cisbio™ (Bedford, Mass.) kit. Cells (hTGR5CRE-luc HEK 293 and mTGR5CRE-luc HEK 293) were harvested using cell dissociation buffer and resuspended in DPBS. Cells were adjusted to 0.44×10^6 cells/ml followed by addition of IBMX to a final concentration of 0.5 mM. The cells were then mixed with d2-cAMP solution (7.1 mL cells+100 ul d2-cAMP) and 4000 cells (9 μL) were transferred to each well of the 384-well assay plate. Cells without d2-cAMP were added to eight wells as a negative control. The plate was covered and incubated at room temp for 30 min. Then 10 μL of Ab-cryptate solution was added to each well of the assay plate and incubated for 1 hr. The plate was read on an EnVision™ plate reader (Perkin-Elmer, Waltham, Mass.) and the DeltaF value was calculated as per the instructions in the Cisbio™ kit.
as §1

Molecule	pEC50 [1]	pEC50 [2]
CN([C@@H](CCC[N+](C)(C)C)C(=O)O)S(=O)(=O)c1cc(F)c(CSc2ncc(C(C)(C)c3ccc(F)c(Cl)c3)n2-c2ccc(F)cc2)c(F)c1 [Compound 14h, (S)-4-carboxy-4-(4-((5-(2-(3-chloro-4-fluorophenyl)propan-2-yl)-1-(4-fluorophenyl)-1H-imidazol-2-ylthio)methyl)-3,5-difluoro-N-methylphenylsulfonamido)-N,N,N-trimethylbutan-1-aminium chloride]	> 7.00	> 7.00
COc1cc(C(C)(C)c2cnc(SCc3c(F)cc(S(=O)(=O)NC4CC[N+](C)(C)CC4)cc3F)n2-c2ccc(F)cc2)ccc1Cl [Compound 11b, 4-({[4-({[5-{1-[4-chloro-3-(methyloxy)phenyl]-1-methylethyl}-1-(4-fluorophenyl)-1H-imidazol-2-yl]thio}methyl)-3,5-difluorophenyl]sulfonyl}amino)-1,1-dimethylpiperidinium]	> 7.00	> 7.00
COc1cc(C(C)(C)c2cnc(SCc3c(F)cc(S(=O)(=O)N(CCC[N+](C)(C)C)C4(C(=O)O)CC4)cc3Cl)n2-c2ccc(F)cc2)ccc1Cl [Compound 14z, 3-[(1-carboxycyclopropyl){[3-chloro-4-({[5-{1-[4-chloro-3-(methyloxy)phenyl]-1-methylethyl}-1-(4-fluorophenyl)-1H-imidazol-2-yl]thio}methyl)-5-fluorophenyl]sulfonyl}amino]-N,N,N-trimethylpropan-1-aminium]	> 7.00	> 7.00
CC[N+](C)(C)CCCN(C)S(=O)(=O)c1cc(F)c(CSc2ncc(C(C)(C)c3ccc(Cl)c(OC)c3)n2-c2ccc(F)cc2)c(Cl)c1 [Compound 11m, 3-[{[3-chloro-4-({[5-{1-[4-chloro-3-(methyloxy)phenyl]-1-methylethyl}-1-(4-fluorophenyl)-1H-imidazol-2-yl]thio}methyl)-5-fluorophenyl)sulfonyl}(methyl)amino]-N-ethyl-N,N-dimethylpropan-1-aminium]	> 7.00	> 7.00
2-({[3-chloro-5-fluoro-4-({[5-{1-[4-fluoro-3-(methyloxy)phenyl]-1-methylethyl}-1-(4-fluorophenyl)-1H-imidazol-2-yl]thio}methyl)phenyl]carbonyl}amino)-N,N,N-trimethylethanaminium [Example 1d]	> 7.00	> 7.00
COc1cc(C(C)(C)c2cnc(SCc3c(F)cc(S(=O)(=O)NCC4CC[N+](C)(C)CC4)cc3Cl)n2-c2ccc(F)cc2)ccc1F [Compound 11s, 4-[({[3-chloro-5-fluoro-4-({[5-{1-[4-fluoro-3-(methyloxy)phenyl]-1-methylethyl}-1-(4-fluorophenyl)-1H-imidazol-2-yl]thio}methyl)phenyl]sulfonyl}amino)methyl]-1,1-dimethylpiperidinium]	> 7.00	> 7.00
COc1cc(C(C)(C)c2cnc(SCc3c(F)cc(S(=O)(=O)N(CCC[N+](C)(C)C)[C@@H](C)C(=O)O)cc3F)n2-c2ccc(F)cc2)ccc1Cl [Compound 14b, (S)-3-(N-(1-carboxyethyl)-4-((5-(2-(4-chloro-3-methoxyphenyl)propan-2-yl)-1-(4-fluorophenyl)-1H-imidazol-2-ylthio)methyl)-3,5-difluorophenylsulfonamido)-N,N,N-trimethylpropan-1-aminium 2,2,2-trifluoroacetate]	> 7.00	> 7.00

The remaining lines, values ahead:

pEC50 [1]	pEC50 [2]	Molecule
> 7.00	> 7.00	COc1cc(C(C)(C)c2cnc(SCc3c(F)cc(C(=O)NCC[N+]45CCN(CC4)CC5)cc3Cl)n2-c2ccc(F)cc2)ccc1F [Example 2a, 1-[2-({[3-chloro-5-fluoro-4-({[5-{1-[4-fluoro-3-(methyloxy)phenyl]-1-methylethyl}-1-(4-fluorophenyl)-1H-imidazol-2-yl]thio}methyl)phenyl]carbonyl}amino)ethyl]-4-aza-1-azoniabicyclo[2.2.2]octane]
> 7.00	> 7.00	COc1cc(C(C)(C)c2cnc(SCc3c(F)cc(C(=O)N[C@@H]4CCC[N+](C)(C)C4)cc3Cl)n2-c2ccc(F)cc2)ccc1Cl [Example 2g, (3R)-3-({[3-chloro-4-({[5-{1-[4-chloro-3-(methyloxy)phenyl]-1-methylethyl}-1-(4-fluorophenyl)-1H-imidazol-2-yl]thio}methyl)-5-fluorophenyl]carbonyl}amino)-1,1-dimethylpiperidinium]
> 7.00	> 7.00	COc1cc(C(C)(C)c2cnc(SCc3c(F)cc(S(=O)(=O)N(C)[C@@H](CCC[N+](C)(C)C)C(=O)O)cc3Cl)n2-c2ccc(F)cc2)ccc1Cl [Compound 17b, (S)-4-carboxy-4-(3-chloro-4-((5-(2-(4-chloro-3-methoxyphenyl)propan-2-yl)-1-(4-fluorophenyl)-1H-imidazol-2-ylthio)methyl)-5-fluoro-N-methylphenylsulfonamido)-N,N,N-trimethylbutan-1-aminium 2,2,2-trifluoroacetate]
> 7.00	> 7.00	COc1cc(-n2c(C(C)(C)c3ccc(F)c(Cl)c3)cnc2SCc2c(F)cc(S(=O)(=O)NCCC[N+](C)(C)C)cc2F)ccc1F [Example 6h, 3-[({4-[({5-[1-(3-chloro-4-fluorophenyl)-1-methylethyl]-1-[4-fluoro-3-(methyloxy)phenyl]-1H-imidazol-2-yl}thio)methyl]-3,5-difluorophenyl}sulfonyl)amino]-N,N,N-trimethylpropan-1-aminium]
> 7.00	> 7.00	COc1cc(-n2c(C(C)(C)c3ccc(S(N)(=O)=O)c(Cl)c3)cnc2SCc2c(F)cc(CCC[N+](C)(C)C)cc2F)ccc1F [Compound 19f, 3-(4-((5-(2-(3-chloro-4-sulfamoylphenyl)propan-2-yl)-1-(4-fluoro-3-methoxyphenyl)-1H-imidazol-2-ylthio)methyl)-3,5-difluorophenyl)-N,N,N-trimethylpropan-1-aminium 2,2,2-trifluoroacetate]
> 7.00	> 7.00	COc1cc(C(C)(C)c2cnc(CCc3c(F)cc(S(=O)(=O)N(C)[C@@H](CCCC[N+](C)(C)C)C(=O)O)cc3Cl)n2-c2ccc(F)cc2)ccc1Cl [Compound 17o, (S)-5-carboxy-5-(3-chloro-4-(2-(5-(2-(4-chloro-3-methoxyphenyl)propan-2-yl)-1-(4-fluorophenyl)-1H-imidazol-2-yl)ethyl)-5-fluoro-N-methylphenylsulfonamido)-N,N,N-trimethylpentan-1-aminium 2,2,2-trifluoroacetate]
> 7.00	> 7.00	COc1cc(C(C)(C)c2cnc(SCc3cc(S(=O)(=O)NCCC[N+](C)(C)C)c(F)cc3Cl)n2-c2ccc(F)cc2)ccc1Cl [Example 7, 3-(4-Chloro-5-((5-(2-(4-chloro-3-methoxyphenyl)propan-2-yl)-1-(4-fluorophenyl)-1H-imidazol-2-ylthio)methyl)-2-fluorophenylsulfonamido)-N,N,N-trimethylpropan-1-aminium 2,2,2-trifluoroacetate]
> 7.00	> 7.00	COc1cc(C(C)(C)c2cnc(SCc3c(F)cc(S(=O)(=O)N(C)[C@H](CCCC[N+](C)(C)C)C(=O)O)cc3F)n2-c2ccc(F)cc2)ccc1Cl [Compound 17k, (R)-5-carboxy-5-(4-((5-(2-(4-chloro-3-methoxyphenyl)propan-2-yl)-1-(4-fluoro-phenyl)-1H-imidazol-2-ylthio)methyl)-3,5-difluoro-N-methylphenylsulfonamido)-N,N,N-trimethylpentan-1-aminium 2,2,2-trifluoroacetate]
> 7.00	> 7.00	COc1cc(C(C)(C)c2cnc(SCc3c(F)ccc(S(=O)(=O)NCCC[N+](C)(C)C)c3F)n2-c2ccc(F)cc2)ccc1Cl [Example 7a, 3-({[3-({[5-{1-[4-chloro-3-(methyloxy)phenyl]-1-methylethyl}-1-(4-fluorophenyl)-1H-imidazol-2-yl]thio}methyl)-2,4-difluorophenyl]sulfonyl}amino)-N,N,N-trimethylpropan-1-aminium]
